The text below walks through data of patent US10519177B2, “Heterocyclic compounds and uses thereof” (Plexxikon Inc., priority 2013, dated 2019).

In the assay the target is BRD4-BD1 (44-164) (Homo sapiens (Human), UniProt O60885). The assay can be described thus: Alphascreen binding assay BRD4-BD1. As to conditions: BRD4(1) H4; read-out: Biochemical activity (IC50 μM) BRD4(1) H4. As to the method:
Binding of compounds of formula (I) with bromodomain 2, 3 4 was assessed using Alphascreen binding assay. The inhibition of the interaction between bromodomain and its acetylated target protein (Filippakopoulos P et al. 2012) was measured quantitatively using recombinant BRD proteins, an acetylated Histone 4 peptide and AlphaScreen™ technology. In absence of inhibition the BRD protein bound to AlphaScreen™ nickel chelate acceptor beads can interact with the acetylated Histone 4 peptide which is immobilized by the AlphaScreen™ Streptavidin coated beads. This interaction brings donor and acceptor beads in proximity. The close proximity allows the singlet oxygen produced by laser excitation of the donor beads to reach the acceptor beads and generate a luminescence signal.
Recombinant human bromodomains containing the N-terminal bromodomain (BRD2-BD1 (71-194), BRD3-BD1 (24-144) and BRD4-BD1 (44-164)) or dual bromodomains (BRD4-BD12 (1-477), BRD4-BD12 (1-472)) were prepared and purified as described in protein expression and purification session. The peptide is human Histone H41-21K5AcK8AcK12AcK16Ac-Biotin (Anaspec CA, USA).
Protocol for BRD2, BRD3 and BRD4 assay: All components are prepared in buffer composed of 50 mM HEPES pH 7.5, 100 mM NaCl, 0.01% bovine serum albumin (“BSA”), 0.01% Triton X-100, 2 mM dithiothreitol (“DTT”). 7 μL of Bromodomain protein and 7 μL of peptide are added to wells containing 1 μL of various concentrations of test compounds of formula (I) or DMSO vehicle in an Alphaplate (PerkinElmer GA, USA) and incubated for 1 hour at room temperature. 4 μL donor and acceptor bead mixture is then added with final concentrations of 7.5 μg/ml. 30 minutes after bead addition, Alpha signal is read on the Envision spectrometer (λEx 680 nm, λEm 520-620 nm). Final concentrations of bromodomain proteins and peptide are as shown below.
All data was normalized to the mean of 16 high and 16 low control wells on each plate. A four parameter curve fit of the following formula was then applied: Y=a+(b−a)/(1+(x/c)^d) Where ‘a’ is the minimum, ‘b’ is the maximum, ‘c’ is the pIC50 and ‘d’ is the Hill slope. Protein Expression and Purification
Recombinant human bromodomains containing the N-terminal bromodomain (BRD2-BD1 (71-194), BRD3-BD1 (24-144) and BRD4-BD1 (44-164)) or dual bromodomains (BRD4-BD12 (1-477), BRD4-BD12 (1-472)) were expressed in E. coli cells (in a modified pET vector) with an N-terminal six-His tag and purified using a combination of both IMAC (Ni-affinity) and size exclusion chromatography steps.
Recombinant BRD proteins were expressed using the E. coli strain BL21-CodonPlus (DE3) (Agilent Technologies CA, USA). Cells were grown in Terrific Broth (TB) media to an OD600 of 1.2 at 37° C. at which temperature was reduced to 25° C., protein was induced with 1.0 mM ispropyl-β-D-thiogalactopyranoside (“IPTG”) for 12-18 hours and harvested by centrifugation at 8000×g for 20 minutes. Cells were re-suspended in 0.1M K2PO4 pH 8.0, 250 mM NaCl, 10% Glycerol, 0.75% NP-40, 25 mM Imidazole, 5 mM beta-mercaptoethanol (“BME”) with 0.2 mg/ml Lysosyme, 2.0 mM phenylmethanesulfonyl fluoride (“PMSF”), 25 μg/ml DNAse I, incubated on ice for 30 minutes and lyzed with a cell disruptor (MicroFluidics MA, USA). The lysate was clarified by centrifugation at 20,000×g for 2 hours. The protein was captured with Ni-NTA resin (Life Technologies, USA). Contaminating proteins were washed off with 25 mM Tris-HCl pH 8.3, 250 mM NaCl, 12% Glycerol and 50 mM Imidazole. Following 3× wash steps, protein was eluted step wise using a 50 mM HEPES pH 7.5, 500 mM NaCl and 400 mM Imidazole. The protein was further purified using Gel Filtration column 26/600 Superdex 200 (GE Biosciences NJ, USA) in 50 mM HEPES pH 7.5, 250 mM NaCl. The protein was aliquoted and flash-frozen in liquid Nitrogen.
For orientation: In Alpha technology, singlet oxygen from a donor bead excites a nearby acceptor bead.

Molecules are shown by their SMILES.

Consider `Cc1noc(C)c1-c1cnc2c(c1)c(CC1CCN(C(=O)C(F)(F)F)CC1)cn2C` [P-0106, 1-[4-[[5-(3,5-dimethylisoxazol-4-yl)-1-methyl-pyrrolo[2,3-b]pyridin-3-yl]methyl]-1-piperidyl]-2,2,2-trifluoro-ethanone], for which the IC50 (in general, the midpoint of a concentration-inhibition curve) was below 1 µM.

In the case of `Cc1noc(C)c1-c1cnc2c(-c3cnn(C)c3)cn(S(=O)(=O)c3ccccc3)c2c1` [P-0110, 4-[1-(benzenesulfonyl)-3-(1-methylpyrazol-4-yl)pyrrolo[3,2-b]pyridin-6-yl]-3,5-dimethyl-isoxazole], the IC50 is below 1 µM.

For `CCCS(=O)(=O)n1cc(-c2cnn(C)c2)c2ncc(-c3c(C)noc3C)cc21` [P-0111, 3,5-dimethyl-4-[3-(1-methylpyrazol-4-yl)-1-propylsulfonyl-pyrrolo[3,2-b]pyridin-6-yl]isoxazole], the IC50 is below 1 µM.

With `Cc1noc(C)c1-c1cnc2c(-c3cnn(C)c3)cn(S(=O)(=O)C3CCCC3)c2c1` [P-0112, 4-[1-cyclopentyl-sulfonyl-3-(1-methyl-pyrazol-4-yl)pyrrolo[3,2-b]pyridin-6-yl]-3,5-dimethyl-isoxazole], the 50% inhibitory concentration (IC50) is below 1 µM.

Consider `Cc1noc(C)c1-c1cnc2c(c1)c(CC1CCN(C(=O)c3ccccc3)CC1)cn2C` [P-0115, [4-[[5-(3,5-dimethylisoxazol-4-yl)-1-methyl-pyrrolo[2,3-b]pyridin-3-yl]methyl]-1-piperidyl]-phenyl-methanone], for which the IC50 was below 1 µM.

On to `CCNC(=O)N1CCC(Cc2cn(C)c3ncc(-c4c(C)noc4C)cc23)CC1` [P-0117, 4-[[5-(3,5-dimethylisoxazol-4-yl)-1-methyl-pyrrolo[2,3-b]pyridin-3-yl]methyl]-N-ethyl-piperidine-1-carboxamide], for which the concentration for half-maximal inhibition (IC50) is below 1 µM.

Take `CCC(c1cn(C)c2ncc(-c3c(C)noc3C)cc12)C1CCC(F)(F)CC1` (stereo not drawn) [P-0118, 4-[3-[1-(4,4-difluorocyclohexyl)propyl]-1-methyl-pyrrolo[2,3-b]pyridin-5-yl]-3,5-dimethyl-isoxazole]: the IC50 is below 1 µM.

With `CC(=O)N1CCC(Cc2cn(C)c3ncc(-c4c(C)noc4C)cc23)CC1` [P-0120, 1-[4-[[5-(3,5-dimethylisoxazol-4-yl)-1-methyl-pyrrolo[2,3-b]pyridin-3-yl]methyl]-1-piperidyl]ethanone], the half-maximal inhibitory concentration (IC50) is below 1 µM.

On to `Cc1noc(C)c1-c1cnc2c(-c3cnn(C)c3)cn(S(=O)(=O)c3ccccc3F)c2c1` [P-0121, 4-[1-(2-fluorophenyl)sulfonyl-3-(1-methyl-pyrazol-4-yl)pyrrolo[3,2-b]pyridin-6-yl]-3,5-dimethyl-isoxazole], for which the half-maximal inhibitory concentration (IC50) is below 1 µM.

On to `Cc1noc(C)c1-c1cnc2c(-c3cnn(C)c3)cn(S(=O)(=O)c3cccc(F)c3)c2c1` [P-0122, 4-[1-(3-fluorophenyl)sulfonyl-3-(1-methyl-pyrazol-4-yl)pyrrolo[3,2-b]pyridin-6-yl]-3,5-dimethyl-isoxazole], for which the IC50 was below 1 µM.

`Cc1noc(C)c1-c1cnc2c(-c3cnn(C)c3)cn(S(=O)(=O)c3ccc(F)cc3)c2c1` [P-0123, 4-[1-(4-fluorophenyl)sulfonyl-3-(1-methyl-pyrazol-4-yl)pyrrolo[3,2-b]pyridin-6-yl]-3,5-dimethyl-isoxazole]: the IC50 was below 1 µM.

Take `CCn1cc(-c2cn(S(=O)(=O)c3ccccc3)c3cc(-c4c(C)noc4C)cnc23)cn1` [P-0124, 4-[1-(benzenesulfonyl)-3-(1-ethylpyrazol-4-yl)pyrrolo[3,2-b]pyridin-6-yl]-3,5-dimethyl-isoxazole]: the half-maximal inhibitory concentration (IC50) is below 1 µM.

Take `CCn1cc(-c2cn(S(=O)(=O)c3ccccc3F)c3cc(-c4c(C)noc4C)cnc23)cn1` [P-0125, 4-[3-(1-ethylpyrazol-4-yl)-1-(2-fluorophenyl)sulfonyl-pyrrolo[3,2-b]pyridin-6-yl]-3,5-dimethyl-isoxazole]: the IC50 was below 1 µM.

As to `C=CCn1cc(-c2cn(S(=O)(=O)c3ccccc3)c3cc(-c4c(C)noc4C)cnc23)cn1` [P-0126, 4-[3-(1-allylpyrazol-4-yl)-1-(benzenesulfonyl)pyrrolo[3,2-b]pyridin-6-yl]-3,5-dimethyl-isoxazole], the IC50 was below 1 µM.

Take `C=CCn1cc(-c2cn(S(=O)(=O)c3ccccc3F)c3cc(-c4c(C)noc4C)cnc23)cn1` [P-0127, 4-[3-(1-allylpyrazol-4-yl)-1-(2-fluorophenyl)sulfonyl-pyrrolo[3,2-b]pyridin-6-yl]-3,5-dimethyl-isoxazole]: the IC50 was below 1 µM.

As to `C=CCn1cc(-c2cn(S(=O)(=O)C3CCCC3)c3cc(-c4c(C)noc4C)cnc23)cn1` [P-0128, 4-[3-(1-allylpyrazol-4-yl)-1-cyclopentyl-sulfonyl-pyrrolo[3,2-b]pyridin-6-yl]-3,5-dimethyl-isoxazole], the IC50 is below 1 µM.

On to `C=CCn1cc(-c2cn(S(=O)(=O)CCC(F)(F)F)c3cc(-c4c(C)noc4C)cnc23)cn1` [P-0129, 4-[3-(1-allylpyrazol-4-yl)-1-(3,3,3-trifluoro-propylsulfonyl)pyrrolo[3,2-b]pyridin-6-yl]-3,5-dimethyl-isoxazole], for which the IC50 was below 1 µM.

Regarding `Cc1noc(C)c1-c1cnc2c(-c3cnn(C(F)F)c3)cn(S(=O)(=O)c3ccccc3)c2c1` [P-0131, 4-[1-(benzenesulfonyl)-3-[1-(difluoromethyl)pyrazol-4-yl]pyrrolo[3,2-b]pyridin-6-yl]-3,5-dimethyl-isoxazole], the IC50 was below 1 µM.

For the compound `Cc1noc(C)c1-c1cnc2c(-c3cnn(C(F)F)c3)cn(S(=O)(=O)c3ccccc3F)c2c1` [P-0132, 4-[3-[1-(difluoromethyl)pyrazol-4-yl]-1-(2-fluorophenyl)sulfonyl-pyrrolo[3,2-b]pyridin-6-yl]-3,5-dimethyl-isoxazole], the concentration for half-maximal inhibition (IC50) was below 1 µM.

For `Cc1noc(C)c1-c1cnc2c(-c3cnn(C(F)F)c3)cn(S(=O)(=O)C3CCCC3)c2c1` [P-0133, 4-[1-cyclopentylsulfonyl-3-[1-(difluoromethyl)pyrazol-4-yl]pyrrolo[3,2-b]pyridin-6-yl]-3,5-dimethyl-isoxazole], the IC50 is below 1 µM.

For `Cc1noc(C)c1-c1cnc2c(-c3cnn(C(F)F)c3)cn(S(=O)(=O)C3CCC3)c2c1` [P-0134, 4-[1-cyclobutyl-sulfonyl-3-[1-(difluoro-methyl)pyrazol-4-yl]pyrrolo[3,2-b]pyridin-6-yl]-3,5-dimethyl-isoxazole], the IC50 was below 1 µM.

For `CCCS(=O)(=O)n1cc(-c2cnn(C(F)F)c2)c2ncc(-c3c(C)noc3C)cc21` [P-0135, 4-[3-[1-(difluoro-methyl)pyrazol-4-yl]-1-propylsulfonyl-pyrrolo[3,2-b]pyridin-6-yl]-3,5-dimethyl-isoxazole], the IC50 was below 1 µM.

As to `Cc1noc(C)c1-c1cnc2c(-c3cnn(C(F)F)c3)cn(S(=O)(=O)CCC(F)(F)F)c2c1` [P-0136, 4-[3-[1-(difluoro-methyl)pyrazol-4-yl]-1-(3,3,3-trifluoro-propylsulfonyl)pyrrolo[3,2-b]pyridin-6-yl]-3,5-dimethyl-isoxazole], the IC50 was below 1 µM.

Take `C=CCn1cc(-c2cn(S(=O)(=O)CCC)c3cc(-c4c(C)noc4C)cnc23)cn1` [P-0137, 4-[3-(1-allylpyrazol-4-yl)-1-propylsulfonyl-pyrrolo[3,2-b]pyridin-6-yl]-3,5-dimethyl-isoxazole]: the IC50 was below 1 µM.
